# Assay results as given in article PMC6631481, “De Novo Design and In Vitro Testing of Antimicrobial Peptides against Gram-Negative Bacteria” (Pharmaceuticals, 2019).
# Like-named read-outs stand apart in the source and are kept apart here. Non-standard residues stand in square brackets, D forms with d. Residues, ends and D or L forms follow the SMILES beside them. No end group written: not given here.
# Tests used:
# Type in all cases: cell-based
# [1] = test system: E. asburiae/cloacae St. L P23; experiment: organism not typed
# Excerpt: (§1) The following strains were used: P. aeruginosa (ATCC 27,853 and resistant strains: J4228 (R: Meropenem), BB2013-100 (FQR)); A. baumannii (Josh 28 and resistant strain Josh 230 (OXA-48); E. cloacae (resistant strains: BB2012-181(R: Meropenem), BB2013-32 (FQR)); E. aerogenes (resistant strain St. L P63 (NDM-1), E. asburiae/cloacae (resistant strain St. L P23 (NDM-1), K. pneumonia (J3702 and resistant strains: BB2009-209 (KPC-2), Oschner KP-1), Escherichia coli (BW25113 (7636) and resistant strains: JW55034 (11430) (Tol neg), BB2013-30 (R:carbapenem), ARLG-1012 (NDM)). Susceptibility testing was performed using non-cation adjusted MHB broth and polypropylene plates. Testing was also done in the presence and absence of acetic acid and BSA.
# [2] = test system: E. aerogenes St. L P63; experiment: microbe, parasite or virus in culture
# Excerpt: as §1
# [3] = test system: A. baumannii Josh 230; experiment: microbe, parasite or virus in culture
# Excerpt: as §1
# [4] = test system: E. coli BW25113 (7636); experiment: microbe, parasite or virus in culture
# Excerpt: as §1
# [5] = test system: K. pneumoniae BB2009-209; experiment: microbe, parasite or virus in culture
# Excerpt: as §1
# [6] = test system: E. cloacae BB2013-32; experiment: microbe, parasite or virus in culture
# Excerpt: as §1
# [7] = test system: E. coli BB2013-30; experiment: microbe, parasite or virus in culture
# Excerpt: as §1
# [8] = test system: P. aeruginosa BB2013-100; experiment: microbe, parasite or virus in culture
# Excerpt: as §1
# [9] = test system: K. pneumoniae J3702; experiment: microbe, parasite or virus in culture
# Excerpt: as §1
# [10] = test system: E. coli JW55034 (11430); experiment: microbe, parasite or virus in culture; conditions: phenotype Tol neg, non-cation adjusted MHB broth, polypropylene plates, meropenem by standard CLSI method
# Excerpt: as §1
# [11] = test system: A. baumannii Josh 28; experiment: microbe, parasite or virus in culture
# Excerpt: as §1
# [12] = test system: P. aeruginosa J4228; experiment: microbe, parasite or virus in culture
# Excerpt: as §1
# [13] = test system: P. aeruginosa ATCC 27853; experiment: microbe, parasite or virus in culture
# Excerpt: as §1
# [14] = test system: K. pneumoniae Oschner KP-1; experiment: microbe, parasite or virus in culture
# Excerpt: as §1
# [15] = test system: E. cloacae BB2012-181; experiment: microbe, parasite or virus in culture
# Excerpt: as §1
# [16] = test system: E. coli ARLG-1012; experiment: microbe, parasite or virus in culture
# Excerpt: as §1
# [17] = test system: Escherichia coli ATCC 25922
# Method: The MICs of the designed cationic peptides against Escherichia coli ATCC 25,922 strains were determined by the broth microdilution method, as described by Hancock et al.. All MIC evaluations were performed using Luria Bertani (LB) medium. Briefly, a range of each peptide concentrations (100 µg/mL, 50 µg/mL, 25 µg/mL, 12.5 µg/mL, 6.25 µg/mL, 3.125 µg/mL) was prepared by serial dilution in NaCl-depleted LB medium and added to an equal volume (250 µl) of exponentially grown bacterial culture, so that final bacterial suspension contained 5 × 10^5 CFU/mL. The samples were incubated in 2 mL polypropylene microtubes at 37 °C overnight at 300 rpm. The MIC was defined as the concentration at which no microbial growth was detected spectrophotometrically, via readings of optical density (OD) at 600 nm (Biotek ELX800 microplate reader). Growth medium containing only bacterial cells was used as a negative control. Each MIC test was carried out in two replicates and repeated three times.
compound,measurement,setting,value
"C[C@@H](O)[C@H]1C(=O)N2C(C(=O)O)=C(S[C@@H]3CN[C@H](C(=O)N(C)C)C3)[C@H](C)[C@H]12 [Meropenem, reference compound]",MIC,"[1]; E. asburiae/cloacae St. L P23, phenotype NDM-1, non-cation adjusted MHB broth, polypropylene plates, meropenem by standard CLSI method, read-out: MIC",16 µg/mL
same,MIC,"[2]; Klebsiella aerogenes, ST.LP63, E. aerogenes St. L P63, phenotype NDM-1, non-cation adjusted MHB broth, polypropylene plates, meropenem by standard CLSI method, read-out: MIC",16 µg/mL
same,MIC,"[3]; Acinetobacter baumannii, JOSH230, A. baumannii Josh 230, phenotype OXA-48, non-cation adjusted MHB broth, polypropylene plates, meropenem by standard CLSI method, read-out: MIC",1 µg/mL
same,MIC,"[4]; Escherichia coli, E. coli BW25113 (7636), phenotype WT, Tol parent strain, non-cation adjusted MHB broth, polypropylene plates, meropenem by standard CLSI method, read-out: MIC",≤ 0.125 µg/mL
same,MIC,"[5]; Klebsiella pneumoniae, BB2009209, K. pneumoniae BB2009-209, phenotype KPC-2, non-cation adjusted MHB broth, polypropylene plates, meropenem by standard CLSI method, read-out: MIC",32 µg/mL
same,MIC,"[6]; Enterobacter cloacae, BB201332, E. cloacae BB2013-32, phenotype FQR, non-cation adjusted MHB broth, polypropylene plates, meropenem by standard CLSI method, read-out: MIC",0.5 µg/mL
same,MIC,"[7]; Escherichia coli, BB201330, E. coli BB2013-30, phenotype R:carbapenem, non-cation adjusted MHB broth, polypropylene plates, meropenem by standard CLSI method, read-out: MIC",1 µg/mL
same,MIC,"[8]; Pseudomonas aeruginosa, BB2013100, P. aeruginosa BB2013-100, phenotype FQR, non-cation adjusted MHB broth, polypropylene plates, meropenem by standard CLSI method, read-out: MIC",1 µg/mL
same,MIC,"[9]; Klebsiella pneumoniae, K. pneumoniae J3702, phenotype Susceptible, non-cation adjusted MHB broth, polypropylene plates, meropenem by standard CLSI method, read-out: MIC",≤ 0.125 µg/mL
same,MIC,"[10]; Escherichia coli, read-out: MIC",≤ 0.125 µg/mL
same,MIC,"[11]; Acinetobacter baumannii, JOSH28, A. baumannii Josh 28, phenotype Susceptible, non-cation adjusted MHB broth, polypropylene plates, meropenem by standard CLSI method, read-out: MIC",32 µg/mL
same,MIC,"[12]; Pseudomonas aeruginosa, P. aeruginosa J4228, phenotype R: Meropenem, non-cation adjusted MHB broth, polypropylene plates, meropenem by standard CLSI method, read-out: MIC",> 64 µg/mL
same,MIC,"[13]; Pseudomonas aeruginosa, ATCC27853, P. aeruginosa ATCC 27853, phenotype CLSI Control, non-cation adjusted MHB broth, polypropylene plates, meropenem by standard CLSI method, read-out: MIC",1 µg/mL
same,MIC,"[14]; Klebsiella pneumoniae, K. pneumoniae Oschner KP-1, phenotype KPC-3, non-cation adjusted MHB broth, polypropylene plates, meropenem by standard CLSI method, read-out: MIC",16 µg/mL
same,MIC,"[15]; Enterobacter cloacae, BB2012181, E. cloacae BB2012-181, phenotype R: Meropenem, non-cation adjusted MHB broth, polypropylene plates, meropenem by standard CLSI method, read-out: MIC",16 µg/mL
same,MIC,"[16]; Escherichia coli, ARLG1012, E. coli ARLG-1012, phenotype NDM, non-cation adjusted MHB broth, polypropylene plates, meropenem by standard CLSI method, read-out: MIC",64 µg/mL
CC[C@@H](C)[C@@H](NC(=O)[C@@H](C)N)C(=O)N[C@H](CCCCN)C(=O)N[C@@H](C(=O)N[C@H](CCCNC(=N)N)C(=O)N[C@H](CCCCN)C(=O)N[C@H](CC(C)C)C(=O)N[C@H](Cc1ccccc1)C(=O)N[C@H](CCCCN)C(=O)N[C@H](CCCCN)C(=O)N[C@H](CC(C)C)C(=O)N[C@H](CC(C)C)C(=O)N[C@H](CCCNC(=N)N)C(N)=O)[C@H](C)CC [SP1D] (H-[dA][dI][dK][dI][dR][dK][dL][dF][dK][dK][dL][dL][dR]-NH2),MIC At NaCl,[17],12.5 to 25 µg/mL
same,MIC Without NaCl,[17],3.125 to 6.25 µg/mL
CC[C@@H](C)[C@@H](NC(=O)[C@@H](Cc1c[nH]c2ccccc12)NC(=O)[C@H](N)CCCNC(=N)N)C(=O)N[C@H](CCCNC(=N)N)C(=O)N[C@H](Cc1c[nH]c2ccccc12)C(=O)N[C@@H](C(=O)N[C@H](Cc1c[nH]c2ccccc12)C(=O)N[C@H](CCCNC(=N)N)C(=O)N[C@H](CCCCN)C(=O)N[C@H](CCCCN)C(=O)N[C@H](CC(C)C)C(=O)N[C@H](CCCNC(=N)N)C(N)=O)C(C)C [SP15D] (H-[dR][dW][dI][dR][dW][dV][dW][dR][dK][dK][dL][dR]-NH2),MIC At NaCl,[17],0.78 to 1.56 µg/mL
same,MIC Without NaCl,[17],0.39 to 0.78 µg/mL
AIKIRKLFKKLLR-NH2 [SP1],MIC,[1],>32 µg/mL
same,MIC,[3]; Josh 230,16 µg/mL
same,MIC,[4]; BW25113,8 µg/mL
same,MIC,[5]; BB2009-209,>32 µg/mL
same,MIC,[6]; BB2013-32,>32 µg/mL
same,MIC,[7]; BB2013-30,16 µg/mL
same,MIC,[8]; BB2013-100,32 µg/mL
same,MIC,[9]; J3702,>32 µg/mL
same,MIC,[10],8 µg/mL
same,MIC,[11]; Josh 28,4 µg/mL
same,MIC,[12]; J4228,8 µg/mL
same,MIC,[13]; ATCC 27853,4 µg/mL
same,MIC,[14]; Oschner KP-1,>32 µg/mL
same,MIC,[16]; ARLG-1012,8 µg/mL
same,MIC At NaCl,[17],12.5 to 25 µg/mL
same,MIC Without NaCl,[17],3.125 to 6.25 µg/mL
AKVLKISRRAFRK-NH2 [SP10],MIC At NaCl,[17],>100 µg/mL
same,MIC Without NaCl,[17],25 to 50 µg/mL
GIKFFLKKLKKHI-NH2 [SP4],MIC,[1],>32 µg/mL
same,MIC,[2]; St. L P63,16 µg/mL
same,MIC,[3]; Josh 230,4 µg/mL
same,MIC,[4]; BW25113,8 µg/mL
same,MIC,[5]; BB2009-209,>32 µg/mL
same,MIC,[6]; BB2013-32,16 µg/mL
same,MIC,[7]; BB2013-30,16 µg/mL
same,MIC,[8]; BB2013-100,32 µg/mL
same,MIC,[9]; J3702,32 µg/mL
same,MIC,[10],8 µg/mL
same,MIC,[11]; Josh 28,2 µg/mL
same,MIC,[12]; J4228,16 µg/mL
same,MIC,[13]; ATCC 27853,8 µg/mL
same,MIC,[14]; Oschner KP-1,>32 µg/mL
same,MIC,[15]; BB2012-181,>32 µg/mL
same,MIC,[16]; ARLG-1012,8 µg/mL
same,MIC At NaCl,[17],25 to 50 µg/mL
same,MIC Without NaCl,[17],6.25 to 12.5 µg/mL
GIKIRKLFKKLLR-NH2 [SP2],MIC At NaCl,[17],6.25 to 12.5 µg/mL
same,MIC Without NaCl,[17],3.125 to 6.25 µg/mL
GWAKLITKAIKKI-NH2 [SP3],MIC,[1],32 µg/mL
same,MIC,[2]; St. L P63,16 µg/mL
same,MIC,[3]; Josh 230,16 µg/mL
same,MIC,[4]; BW25113,4 µg/mL
same,MIC,[5]; BB2009-209,>32 µg/mL
same,MIC,[6]; BB2013-32,16 µg/mL
same,MIC,[7]; BB2013-30,8 µg/mL
same,MIC,[8]; BB2013-100,32 µg/mL
same,MIC,[9]; J3702,16 µg/mL
same,MIC,[10],4 µg/mL
same,MIC,[11]; Josh 28,4 µg/mL
same,MIC,[12]; J4228,16 µg/mL
same,MIC,[13]; ATCC 27853,8 µg/mL
same,MIC,[14]; Oschner KP-1,>32 µg/mL
same,MIC,[15]; BB2012-181,16 µg/mL
same,MIC,[16]; ARLG-1012,4 µg/mL
same,MIC At NaCl,[17],25 to 50 µg/mL
same,MIC Without NaCl,[17],12.5 to 25 µg/mL
HFKIRKRFVKKLV-NH2 [SP13],MIC At NaCl,[17],>100 µg/mL
same,MIC Without NaCl,[17],6.25 to 12.5 µg/mL
IRPAKLRWFKKIK-NH2 [SP5],MIC At NaCl,[17],>100 µg/mL
same,MIC Without NaCl,[17],12.5 to 25 µg/mL
IRRRIRLIVRRQI-NH2 [SP12],MIC At NaCl,[17],12.5 to 25 µg/mL
same,MIC Without NaCl,[17],1.56 to 3.125 µg/mL
IRRWRLHWFRRAI-NH2 [SP11],MIC At NaCl,[17],12.5 to 25 µg/mL
same,MIC Without NaCl,[17],3.125 to 6.25 µg/mL
KFRKFGKQVWVRL-NH2 [SP8],MIC At NaCl,[17],12.5 to 25 µg/mL
same,MIC Without NaCl,[17],3.125 to 6.25 µg/mL
KVWSRLRKIFSTR-NH2 [SP9],MIC At NaCl,[17],6.25 to 12.5 µg/mL
same,MIC Without NaCl,[17],3.125 to 6.25 µg/mL
NAMRGAKRVWRHI-NH2 [SP7],MIC At NaCl,[17],>100 µg/mL
same,MIC Without NaCl,[17],50 to 100 µg/mL
RLFIKKLKFITRR-NH2 [SP6],MIC At NaCl,[17],25 to 50 µg/mL
same,MIC Without NaCl,[17],3.125 to 6.25 µg/mL
RWIRWVWRKKLR-NH2 [SP15],MIC At NaCl,[17],3.125 to 6.25 µg/mL
same,MIC Without NaCl,[17],0.78 to 1.56 µg/mL
RWIRWVWRKKLRI-NH2 [SP14],MIC At NaCl,[17],12.5 to 25 µg/mL
same,MIC Without NaCl,[17],3.125 to 6.25 µg/mL
